# Data: patent publication EP0336958B1, “PRODUCT CONTAINING AS ACTIVE PRINCIPLES: A) A PEPTIDE HAVING AN ACTIVITY OF THE TYPE OF THAT OF HUMAN GAMMA INTERFERON, B) HYDROXYUREA” (priority 1987, dated 1989)
# Test system: cellules HL-60
# Details: hydroxyurée alone, 150 uM
structure (smiles),measurement,value
NC(=O)NO [hydroxyurée],inhibition de la croissance des cellules HL-60,inhibition suffisante de la croissance des cellules HL-60
